Measurements from PMC6988309, “Preclinical efficacy for a novel tyrosine kinase inhibitor, ArQule 531 against acute myeloid leukemia” (Journal of Hematology & Oncology, 2020).

How the values were obtained:
[1] = tested on: primary AML patient blasts; test: MTS proliferation assay, primary AML blasts co-cultured with HS5-GFP stroma cells, 96 h; type: cell-based, human; details: HS5-GFP co-culture
Text: For in vitro cytotoxicity experiments (Fig. 1b–d), repeated measures models were used to account for correlations among observations from the same experiment. The percentage of live cells was compared at each concentration with DMSO. […] Mixed effects models were used in experiments described in Additional file 1: Table S4 and Fig. 2c to account for correlations within a single patient. Outcome data were first log-transformed to stabilize variances and reduce skewness. For survival experiments (Figs. 5 and 6a), Kaplan-Meier curves were produced and group differences for Fig. 5 and assessed by the log-rank test and for Fig. 6a, p values have been adjusted for multiple comparisons using Holm’s procedure. p values from experiments with multiple endpoints were adjusted for multiple comparisons using either Holm’s procedure or Dunnett’s test (all comparisons against vehicle/DMSO).
MTS proliferation assay using a human stroma co-culture assay. […] FLT3 wild-type (WT) samples (red) and FLT3-ITD (black). Colony-Forming Unit-Granulocyte and Macrophage (CFU-GM) assay. […] Number of colonies were counted after 14 days (c)

U937 = test: MTS proliferation assay 72 h, U937; type: cell-based, human
Method: A total of 5000–30,000 cells from the lines above were treated in a 96-well plate for 72 h. CellTiter 96 Aqueous MTS reagent (Promega, Madison, WI) was added to cells followed by a 3-h incubation at 37 °C, 5% CO2. The absorbance was measured at 490 nm using DTX 880 plate reader and the half maximal inhibitory concentration (IC50) was calculated using GraphPad Prism 7 (GraphPad Software, La Jolla, CA) and SAS/STAT software (SAS v9.4 for Windows, SAS Institute, Inc., Cary, NC). For the MOLM-13 resistant and the Ba/F3-FLT3-ITD/TKD cell lines, cells were treated for 72 h and cell viability was evaluated using MTT assay (Roche Diagnostics. Mannheim. Germany) according to the manufacturer’s instructions.

[2] = tested on: phosphorylated SYK (tyrosine 525/526); test: Immunoblot of phospho-SYK Tyr525/526; type: cell-based, human; details: MOLM-13, MV4-11, and OCI-AML3, 10-min treatment
Method: Cell lines were serum starved overnight followed by a 10-min treatment. Cells were washed in ice-cold PBS then lysed in 1X Cell Lysis Buffer (CST) supplemented with proteinase and phosphatase inhibitors cocktail (Roche). Pierce BCA Protein Assay was used to quantify the protein lysates (Thermo Fisher Scientific, Waltham, MA). For Immunoblotting, 15–25 μg of protein lysate was prepared in 2X or 4X Laemmeli’s sample buffer (Bio-Rad Laboratories, Hercules, CA) and heated for 5 min at 100 °C. Samples were separated on 8% sodium dodecyl sulfate polyacrylamide gel and transferred onto nitrocellulose membrane (Bio-Rad Laboratories, Hercules, CA). The membranes were blocked for 1 h in Blocker BLOTTO Blocking Buffer (Thermo Fisher Scientific, Waltham, MA) or 5% non-fat milk followed by overnight incubation at 4 °C with primary antibody followed by HRP-conjugated secondary antibodies and visualized with chemiluminescent Pierce ECL Substrate (Thermo Fisher Scientific, Waltham, MA) on X-ray films.
Fig. 3 ARQ 531 modulates AML pro-survival kinases. Immunoblot analysis for MOLM-13, MV4-11, and OCI-AML3 AML cell lines (representative of 2-3 independent blots). […] Twenty to 25 μg of total protein lysate was loaded per lane. GAPDH, HSP90, or β-Actin were used as loading controls. a, b Modulation of phosphorylated SFK and downstream targets in FLT3-ITD cell lines MOLM-13 and MV-11, respectively. c, d Modulation of phosphorylated SYK and BTK in all three cell lines

MCL1 = test: Immunoblot of MCL1 modulation in MOLM-13; type: cell-based, human; details: MOLM-13, serum starved, 20 h treatment
Method: Fig. 6 Immunoblot analysis for MCL1 modulation in MOLM-13 FLT3-ITD cell line (representative of two independent blots). Cells were serum starved and treated for 20 h with ARQ 531 alone or in combination with venetoclax. […] GAPDH used as loading control. Band densitometry is done using ImageJ and quantified relative to GAPDH and DMSO treatment (a). In vitro analysis for additive or synergistic activity for ARQ 531 and venetoclax combination. Representative of three MTS proliferation assays. The MOLM-13 cell line was treated with increasing doses of ARQ 531 or venetoclax single agents or a combination of both for 72 h. Three biological replicates were analyzed using Combenefit software implementing the mathematical models for Highest Single Agent (HSA), Loewe, and Bliss (b). […]

[3] = tested on: MOLM-13, MV4-11, and OCI-AML3 cell lines; test: Annexin/PI apoptosis assay 72 h; type: cell-based, human; details: increasing concentrations of ARQ 531 or 50 nM gilteritinib
Method: Cells were treated for 72 h then stained for 20 min in 1X Annexin Binding buffer (BD Biosciences, Franklin Lakes, NJ) containing Annexin V-FITC and Propidium Iodine (Leinco Technologies, Fenton, MO). Live and apoptotic cells were measured using FC 500 flow cytometer and analyzed on Kaluza software (Beckman Coulter, Pasadena, CA).

[4] = cited from earlier work

## O=C(c1ccc(Oc2ccccc2)cc1Cl)c1c[nH]c2ncnc(N[C@@H]3CC[C@@H](CO)OC3)c12 [ARQ 531]
[1]; 0.005 µM
  Estimated Ratio of proliferation versus vehicle (DMSO): 0.91
[1]; 0.01 µM
  Estimated Ratio of proliferation versus vehicle (DMSO): 0.95
[1]; 0.05 µM
  Estimated Ratio of proliferation versus vehicle (DMSO): 0.92
[1]; 0.1 µM
  Estimated Ratio of proliferation versus vehicle (DMSO): 0.9
[1]; 0.5 µM
  Estimated Ratio of proliferation versus vehicle (DMSO): 0.69
[1]; 1 µM
  Estimated Ratio of proliferation versus vehicle (DMSO): 0.58
[1]; 5 µM
  Estimated Ratio of proliferation versus vehicle (DMSO): 0.34
[1]; 10 µM
  Estimated Ratio of proliferation versus vehicle (DMSO): 0.28
[1]; 50 µM
  Estimated Ratio of proliferation versus vehicle (DMSO): 0.09
U937
  resistant to concentrations up to: > 10 µM
U937; 4-parameter logistic model
  Estimated absolute µM IC50 (95% CI): Unable to calculate IC50
[2]
  effect on phosphorylated SYK (tyrosine 525/526): inhibited the phosphorylated levels of SYK
MCL1
  MCL1 protein level: MCL1 downregulation
[3]
  apoptosis / cytotoxicity (Annexin/PI): induced cell apoptosis
[4]; 65 mg daily dose
  Cmax: ~3000 nM
[4]; ongoing phase 1 dose escalation trial in relapsed or refractory CLL
  concentration steady-state levels: exceeding 1 μM
